Measured values taken from article PMC8954846, “Molecular Characterisation of Flavanone O-methylation in Eucalyptus” (International Journal of Molecular Sciences, 2022).
Read-outs that look alike come from different tables or passages of the source.

Key:
[1] = tested on: T1, EnOMT1; assay: methyltransferase assay, RP-HPLC of pinostrobin formed, Michaelis-Menten fit; format: biochemical, Eucalyptus nitida; conditions: crude recombinant E. coli extract, 50 mM potassium phosphate pH 7, 30 °C, read-out: apparent Km
T1 construct: gene OMT1; full-length, 349 residues; E. coli BL21 (DE3)

[2] = tested on: T2, EcOMT1; assay: as above; format: biochemical, Eucalyptus croajingolensis; conditions: crude recombinant E. coli extract; SAM; 50 mM potassium phosphate pH 7, 30 °C; read-out: apparent Km app
T2 construct: gene OMT1; full-length

[3] = tested on: T3, EmOMT1; assay: methyltransferase assay, RP-HPLC, extrapolated non-linear regression; format: biochemical, Eucalyptus mitchelliana; conditions: crude recombinant E. coli extract, SAM, 50 mM potassium phosphate pH 7, 30 °C, 16 h incubation needed for product, read-out: apparent Km
T3 construct: gene OMT1; full-length

Row | SMILES | Km ([1]; 100 μM SAM, kcat from His-affinity purified enzyme) | Km [2] | Km [3] | Km ([1]; 50 μM pinocembrin, methyl donor)
1 | O=C1C[C@@H](c2ccccc2)Oc2cc(O)cc(O)c21 [pinocembrin] | 2.05 ± 0.16 µM | 2550 ± 380 nM | > 800 µM | –
2 | C[S+](CC[C@H](N)C(=O)O)C[C@H]1O[C@@H](n2cnc3c(N)ncnc32)[C@H](O)[C@@H]1O (stereo partly shown) [S-adenosylmethionine] | – | – | – | 4.99 ± 0.29 µM
